Assay results published in patent US12486234B2, “PAPD5 inhibitors and methods of use thereof” (Children's Medical Center Corporation, priority 2019, dated 2025).

Key:
PAPD5 [1] = biological target: T1, PAPD5 (Homo sapiens, UniProt Q8NDF8); assay: DSF binding assay (shift in temperature); details: shift in temperature at 100 μM of the compound
T1 construct: made in house
Protocol: (§1) Qualitative measure of RNA oligo-extension inhibition for the tested compounds, expressed as range from minimal activity (0) to that of compound 1 (+++), and results of a DSF binding assay (shown as shift in temperature at 100 μM of the compound) are shown in the Table 2 below.

PAPD5 [2] = biological target: T1, PAPD5; assay: RNA oligo-adenylation (oligo-extension) inhibition assay with recombinant PAPD5; assay type: biochemical; parameters: key: minimal activity (0); range from minimal activity (0) to that of compound 1 (+++); range from minimal activity (0) to that of compound 1 (+++); that of compound 1 (+++); details: qualitative measure of RNA oligo-extension inhibition, relative to compound 1
Protocol: An in vitro RNA polyadenylation assay using recombinant PAPD5, ATP and an oligonucleotide substrate utilized the following phenomenon: ATP utilization by PAPD5 reads out as a decreased luminescence signal produced by luciferase (KinaseGlo, Promega, Madison, WI).
as §1

T1 sequence (Q8NDF8 68-698 isoform Q8NDF8-5 limits assumed): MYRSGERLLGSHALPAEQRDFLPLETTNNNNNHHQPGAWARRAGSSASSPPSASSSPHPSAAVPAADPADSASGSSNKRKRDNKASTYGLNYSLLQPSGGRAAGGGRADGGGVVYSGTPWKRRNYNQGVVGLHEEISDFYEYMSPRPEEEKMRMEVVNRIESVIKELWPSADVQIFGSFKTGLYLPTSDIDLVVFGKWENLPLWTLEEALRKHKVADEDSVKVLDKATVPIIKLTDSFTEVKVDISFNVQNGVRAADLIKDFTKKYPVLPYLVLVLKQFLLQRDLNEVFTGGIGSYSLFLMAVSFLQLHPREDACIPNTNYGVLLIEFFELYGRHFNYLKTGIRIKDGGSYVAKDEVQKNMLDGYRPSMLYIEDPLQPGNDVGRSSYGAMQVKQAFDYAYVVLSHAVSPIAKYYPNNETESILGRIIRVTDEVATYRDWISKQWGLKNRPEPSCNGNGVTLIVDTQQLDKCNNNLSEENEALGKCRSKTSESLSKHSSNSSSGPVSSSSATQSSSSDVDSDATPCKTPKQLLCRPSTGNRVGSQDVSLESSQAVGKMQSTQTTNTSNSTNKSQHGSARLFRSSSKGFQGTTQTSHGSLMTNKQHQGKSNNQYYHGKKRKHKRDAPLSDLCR

SMILES	ΔTm at 100 µM (PAPD5 [1])	Inhibition of PAPD5 RNA oligo adenylation (PAPD5 [2])	ΔTm 100 μM (PAPD5 [1])
CCOC(=O)c1cnc2ccc(Br)cc2c1Nc1ccccc1C(=O)O [Compound 26A, 2-[(6-bromo-3-ethoxycarbonyl-4-quinolyl)amino]benzoic acid]	11.1 °C	+++	–
O=C(O)c1ccccc1Nc1c(C(=O)N2CCNCC2)cnc2ccc(OC(F)(F)F)cc12 [Compound 14A, 2-[[3-(piperazine-1-carbonyl)-6-(trifluoromethoxy)-4-quinolyl]amino]benzoic acid]	1.7 °C	++	–
CCOC(=O)c1cnc2ccc(OC(F)(F)F)cc2c1Nc1ncccc1C(=O)O [Compound 1A, 2-[[3-ethoxycarbonyl-6-(trifluoromethoxy)-4-quinolyl]amino]pyridine-3-carboxylic acid]	0.4 °C	0	–
O=C(O)c1ccccc1Nc1c(S(=O)(=O)N2CCOCC2)cnc2ccc(Cl)cc12 [Compound 80A, 2-[(6-chloro-3-morpholinosulfonyl-4-quinolyl)amino]benzoic acid]	16.4 °C	+++	–

The next lines start with the values.

ΔTm at 100 µM (PAPD5 [1])	Inhibition of PAPD5 RNA oligo adenylation (PAPD5 [2])	ΔTm 100 μM (PAPD5 [1])	SMILES
0.4 °C	0	–	COCCCOc1cc2ncc(C#N)c(-n3ccc(=O)c(C(=O)O)c3)c2cc1OC [Compound 56A, 1-[3-cyano-6-methoxy-7-(3-methoxypropoxy)-4-quinolyl]-4-oxo-pyridine-3-carboxylic acid]
1.7 °C	0	–	O=c1c2cnc3ccc(OC(F)(F)F)cc3c2[nH]c2ccnn12 [Compound 30A, 6-(trifluoromethoxy)-14,15,16,17-tetrazatetracycloheptadeca-(6),1(7),2(8),3(15),4(9),5(16),10-heptaen-12-one]
1.1 °C	0	–	COc1cccc(Nc2c(S(=O)(=O)N3CCOCC3)cnc3ccc(Br)cc23)c1C(=O)O [Compound 78A-INT, 2-[(6-bromo-3-morpholinosulfonyl-4-quinolyl)amino]-6-methoxy-benzoic acid]
–	+++	fluorescent	N#Cc1cnc2ccc(-c3cccc4ncccc34)cc2c1Nc1ccccc1C(=O)O [Compound 54A, 2-[[3-cyano-6-(5-quinolyl)-4-quinolyl]amino]benzoic acid]
